# Experimental data published in patent publication US20180326014A1, “PHARMACEUTICAL FORMULATIONS FOR THE TREATMENT OF DIABETES” (KALEYDE PHARMACEUTICALS AG, priority 2016, published 2018).
# Where two headings read alike, the source gives them in different places. Where a SMILES comes first, the peptide text is derived from it. [ ]: non-standard residue; d: D form. ξ: configuration not given here. ξαMeF = CC(N)(Cc1ccccc1)C(=O)O; Aib = CC(C)(N)C(=O)O
# Tests used:
# [1] = system: SD-STZ rats (Sprague-Dawley rats rendered diabetic with streptozotocin); settings: rat, in vivo
# Protocol: (§1) The severity of the diabetic state was evaluated by daily monitoring of body weight, clinical signs and blood glucose levels.
# (§2) The dose of STZ was prepared at the time of use by dissolving the compound in 0.05M citrate buffer, pH 4.5. For the STZ administration, the animals were placed in the dorsal position and the injection site was disinfected and buffered with an iodine-povidone solution; the i.p. injection was performed in the caudal abdominal cavity of the rats, using a sterile 25 g needle. The severity of the diabetes caused by administration of STZ was monitored daily, evaluating blood glucose levels with the One-Touch profile (LifeScan, Milpitas, Calif.), every day; urine glucose with Clinistix (Bayer Diagnostica, Basingstoke, United Kingdom), twice a week; insulin levels, twice a week, with an RIA Kit (BioRad, Milan, Italy).
# (§3) 5) subcutaneously twice a day. The retinal functionality of the animals in each group was evaluated by ERG before euthanasia and removal of the retinas for quantitative histochemical analysis.
# (§4) Retinal function was evaluated by ERG, as reported in detail in example 2.
# (§5) The study design involved 5 groups of 10 rats, 5 male and 5 female. […]
# [2] = system: DP BB rats (Diabetes-Prone BioBreeding rats); settings: rat, in vivo, sc
# Protocol: (§6) The efficacy of formulation 3, described in example 1, in the treatment of the retinal vascular alterations associated with diabetes, was evaluated using as experimental model DP BB rats (Diabetes-Prone BioBreeding rats, M&B Bomholtvej, Denmark), analyzing the retinal function of the treated animals by electroretinography (ERG) and the state of vascularization of the retina by quantitative immunohistochemical techniques.
# (§7) 60 3-week old DP BB rats of both sexes (30 male and 30 female) were used. […] The animals were observed from the 3rd to 30th weeks of life, monitoring various parameters, including weight, blood glucose, urine glucose and blood insulin. In particular, the onset of diabetes was evaluated by measuring blood glucose with the One-Touch profile (LifeScan, Milpitas, Calif.) twice a week, and every day from the 13th week; urine glucose with Clinistix (Bayer Diagnostica, Basingstoke, United Kingdom), twice a week; insulin levels twice a week, with an RIA Kit (BioRad, Milan, Italy). […]
# (§8) The retinal functionality of the animals in each group was evaluated by ERG before euthanasia and removal of the retinas for quantitative histochemical analysis.
# (§9) Retinal functionality was evaluated by ERG, using a scotopic full-field ERG. […] The wave amplitude was measured at a fixed time of 8 ms from the stimulus, to minimise non-photoreceptor contamination. […]
# [3] = system: DP BB rats (Diabetes-Prone BioBreeding rats); test: Retinal function by scotopic full-field ERG (SOPs) in diabetes-prone BioBreeding rats; settings: daily s.c., peptide groups E, F, insulin alone group C, peptide+insulin group D
# Protocol: as §6, §7, §8, §9
# [4] = system: SD-STZ rats (Sprague-Dawley rats rendered diabetic with streptozotocin); test: Immunohistochemistry and quantitative analysis of neovascular tuft formations in retinas of SD-STZ rats; assay type: in vivo, rat; settings: daily administration, peptide groups C and E, insulin alone group D
# Description: 5) subcutaneously twice a day.
# For each experimental condition, the quantitative data originated from 20 retinas of 10 different rats.
# Table 5—Immunohistochemical tests on retinas and quantitative analysis of neovascular tuft formations. The state of vascularization of the retina of the treated animals was studied as reported in example 2. For each experimental condition, the quantitative data originated from 20 retinas of 10 different rats. […] The areas of neovascularization are expressed as the ratio between the area of neovascularization present in the animals which are not yet diabetic (Group A≈0.1% of the retinal area) and that of the group. […] 5) subcutaneously twice a day.
# [5] = system: SD-STZ rats (Sprague-Dawley rats rendered diabetic with streptozotocin); test: Retinal function by ERG (SOPs) in rats rendered diabetic with streptozotocin; settings: daily administration, peptide groups C and E, insulin alone printed as groups B and D
# Protocol: as §1, §2, §3, §4, §5
# [6] = system: DP BB rats (Diabetes-Prone BioBreeding rats); test: CD31 immunohistochemistry and quantitative analysis of neovascular tuft formations in retinas of DP BB rats; assay type: in vivo, rat; settings: daily s.c., peptide groups E, F, insulin alone group C, peptide+insulin group D
# Protocol: The state of vascularization of the retina of the treated animals was studied on the whole retinas, using antibodies directed against CD31 (BD Biosciences, San Diego, Calif., USA), an important marker for the endothelial cells. The immunohistochemical tests on the retinas and quantitative analysis of the neovascular tuft formations, vascular and avascular areas, were conducted as reported in the literature (Exp Eye Res. 2013; 111:27-35; Invest Ophthalmol Vis Sci. 2012; 53:2181-2192; J Neurochem. 2011; 119:1317-1329; Invest Ophthalmol Vis Sci. 2006; 47:2125-2134). […]
# The retinal vascularization images were acquired with an epifluorescence microscope (Eclipse E800; Nikon Corp., Amsterdam, Netherlands) using a digital camera converter (SD-Filc camera; Nikon Corp.). The electronic images were processed with image-processing software (Adobe Photoshop; Adobe Systems, Inc., Mountain View, Calif., USA) to allow quantitative analysis of the results. For each experimental condition, the quantitative data originated from 20 retinas of 10 different rats.
# Table 3—Immunohistochemical tests on retinas and quantitative analysis of neovascular tuft formations. […] The electronic images were processed with image-processing software (Adobe Photoshop; Adobe Systems, Inc., Mountain View, Calif., USA) to allow quantitative analysis of the results. […]
molecule,measurement,setting,value
CC(=O)NC(C)(C)C(=O)N[C@@H](CCCNC(=N)N)C(=O)NC(C)(C)C(=O)N[C@@H](CCCNC(=N)N)C(=O)NC(C)(Cc1ccccc1)C(N)=O (stereo partly drawn) [Ac-Aib-Arg-Aib-Arg-α(Me)Phe-NH2] (Ac-[Aib]R[Aib]R[ξαMeF]-NH2),"effect on retinal vascular damage, in words (Table 4)",[1],prevent ab initio the formation of retinal vascular damage
CC(=O)N[C@@H](CCCNC(=N)N)C(=O)NC(C)(C)C(=O)N[C@@H](CCCNC(=N)N)C(=O)NC(C)(Cc1ccccc1)C(N)=O (stereo partly drawn) [Ac-Arg-Aib-Arg-α(Me)Phe-NH2] (Ac-R[Aib]R[ξαMeF]-NH2),"effect on retinal vascular damage / eyesight, in words (Table 2)",[2],prevent the formation of retinal vascular damage
insulin,"effect on retinal vascular damage / eyesight, in words (Table 2)",[3],causes major retinal vascular damage
same,"effect on retinal vascular damage / NTA, in words (Table 5)",[4],leads to a major increase in NTA
same,"effect on retinal vascular damage, in words (Table 4)",[5],gives rise to major retinal vascular damage
same,"effect on retinal vascular damage / NTA, in words (Table 3)",[6],causes a major increase in NTA
